Experimental data published in ChEMBL document CHEMBL5058646 (2022).

What was measured:
[1] = biological target: Peregrin (Homo sapiens) (UniProt P55201); experiment: BRPF1 SGC Tm panel (DSF); details: Compound concentration 20.0 uM
[2] = biological target: Casein kinase I isoform delta (Homo sapiens) (UniProt P48730); experiment: CSNK1D SGC Tm panel (DSF); details: Compound concentration 20.0 uM
[3] = biological target: Serine/threonine-protein kinase DCLK1 (Homo sapiens) (UniProt O15075); experiment: DCAMKL1 SGC Tm panel (DSF); details: Compound concentration 20.0 uM
[4] = biological target: Fibroblast growth factor receptor 3 (Homo sapiens) (UniProt P22607); experiment: FGFR3 SGC Tm panel (DSF); details: Compound concentration 20.0 uM
Sequence of Fibroblast growth factor receptor 3 (Homo sapiens) (P22607 23-806 limits assumed): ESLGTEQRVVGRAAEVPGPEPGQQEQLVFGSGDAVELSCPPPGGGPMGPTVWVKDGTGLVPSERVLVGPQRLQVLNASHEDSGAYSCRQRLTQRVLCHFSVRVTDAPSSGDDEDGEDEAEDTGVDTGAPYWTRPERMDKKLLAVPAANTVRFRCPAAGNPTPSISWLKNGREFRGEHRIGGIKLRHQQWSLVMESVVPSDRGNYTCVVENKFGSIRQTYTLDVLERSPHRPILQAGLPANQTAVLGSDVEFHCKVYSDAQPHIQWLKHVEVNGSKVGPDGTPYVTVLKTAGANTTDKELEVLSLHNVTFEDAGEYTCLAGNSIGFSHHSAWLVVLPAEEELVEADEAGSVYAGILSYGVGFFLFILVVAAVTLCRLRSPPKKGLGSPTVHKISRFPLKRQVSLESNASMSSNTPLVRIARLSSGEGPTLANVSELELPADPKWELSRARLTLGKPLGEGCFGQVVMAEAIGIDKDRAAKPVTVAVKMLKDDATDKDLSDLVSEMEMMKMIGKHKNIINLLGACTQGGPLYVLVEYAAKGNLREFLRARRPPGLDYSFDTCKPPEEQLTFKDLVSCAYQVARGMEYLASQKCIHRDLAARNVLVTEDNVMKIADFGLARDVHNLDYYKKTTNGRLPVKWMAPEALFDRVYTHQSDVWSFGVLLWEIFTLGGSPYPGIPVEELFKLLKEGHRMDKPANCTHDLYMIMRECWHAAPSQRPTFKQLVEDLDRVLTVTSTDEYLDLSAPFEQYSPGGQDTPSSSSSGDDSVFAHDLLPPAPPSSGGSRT

[5] = biological target: Serine/threonine-protein kinase haspin (Homo sapiens) (UniProt Q8TF76); experiment: GSG2 SGC Tm panel (DSF); details: Compound concentration 20.0 uM
Sequence of Serine/threonine-protein kinase haspin (Homo sapiens) (Q8TF76 whole entry): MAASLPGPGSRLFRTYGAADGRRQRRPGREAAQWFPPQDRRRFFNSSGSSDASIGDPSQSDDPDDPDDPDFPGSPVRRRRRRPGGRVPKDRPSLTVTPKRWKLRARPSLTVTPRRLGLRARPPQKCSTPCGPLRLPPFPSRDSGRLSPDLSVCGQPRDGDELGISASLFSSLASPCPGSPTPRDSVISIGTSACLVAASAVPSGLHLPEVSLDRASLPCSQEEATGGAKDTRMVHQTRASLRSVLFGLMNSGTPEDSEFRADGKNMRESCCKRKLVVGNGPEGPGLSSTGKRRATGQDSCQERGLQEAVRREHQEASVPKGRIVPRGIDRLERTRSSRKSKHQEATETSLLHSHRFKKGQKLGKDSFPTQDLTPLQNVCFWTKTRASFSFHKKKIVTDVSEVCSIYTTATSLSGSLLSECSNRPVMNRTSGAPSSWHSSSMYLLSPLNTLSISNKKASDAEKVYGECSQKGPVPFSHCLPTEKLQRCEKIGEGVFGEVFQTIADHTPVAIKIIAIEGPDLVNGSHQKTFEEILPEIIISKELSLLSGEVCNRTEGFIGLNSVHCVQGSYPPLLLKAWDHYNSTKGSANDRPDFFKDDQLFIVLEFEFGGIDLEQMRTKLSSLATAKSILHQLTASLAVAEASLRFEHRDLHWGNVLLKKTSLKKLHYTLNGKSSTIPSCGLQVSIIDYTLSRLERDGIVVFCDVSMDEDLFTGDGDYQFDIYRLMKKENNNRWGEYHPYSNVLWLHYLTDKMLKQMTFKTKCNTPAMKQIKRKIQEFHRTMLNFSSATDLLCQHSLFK

[6] = biological target: Glycogen synthase kinase-3 beta (Homo sapiens) (UniProt P49841); experiment: GSK3B SGC Tm panel (DSF); details: Compound concentration 20.0 uM
[7] = biological target: Serine/threonine-protein kinase pim-3 (Homo sapiens) (UniProt Q86V86); experiment: PIM3 SGC Tm panel (DSF); details: Compound concentration 20.0 uM
[8] = biological target: Serine/threonine-protein kinase RIO1 (Homo sapiens) (UniProt Q9BRS2); experiment: RIOK1 SGC Tm panel (DSF); details: Compound concentration 20.0 uM
Sequence of Serine/threonine-protein kinase RIO1 (Homo sapiens) (Q9BRS2 whole entry): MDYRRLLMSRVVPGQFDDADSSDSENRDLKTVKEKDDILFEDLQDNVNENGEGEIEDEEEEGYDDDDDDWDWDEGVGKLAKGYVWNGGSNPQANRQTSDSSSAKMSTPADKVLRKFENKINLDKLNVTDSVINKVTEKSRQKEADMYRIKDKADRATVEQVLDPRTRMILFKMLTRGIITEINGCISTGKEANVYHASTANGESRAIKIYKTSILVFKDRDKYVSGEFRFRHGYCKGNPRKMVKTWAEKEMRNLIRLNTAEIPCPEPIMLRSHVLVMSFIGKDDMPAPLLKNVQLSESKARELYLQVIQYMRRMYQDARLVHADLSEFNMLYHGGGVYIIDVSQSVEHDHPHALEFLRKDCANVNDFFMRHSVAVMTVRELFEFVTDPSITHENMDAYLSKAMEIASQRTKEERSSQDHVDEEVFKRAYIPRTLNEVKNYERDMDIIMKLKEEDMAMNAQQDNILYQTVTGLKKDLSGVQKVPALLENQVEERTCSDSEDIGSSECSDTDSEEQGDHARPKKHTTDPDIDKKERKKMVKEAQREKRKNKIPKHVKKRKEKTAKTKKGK

[9] = biological target: STE20/SPS1-related proline-alanine-rich protein kinase (Homo sapiens) (UniProt Q9UEW8); experiment: STK39 SGC Tm panel (DSF); details: Compound concentration 20.0 uM
[10] = biological target: Serine/threonine-protein kinase ULK3 (Homo sapiens) (UniProt Q6PHR2); experiment: ULK3 SGC Tm panel (DSF); details: Compound concentration 20.0 uM
Sequence of Serine/threonine-protein kinase ULK3 (Homo sapiens) (Q6PHR2 whole entry): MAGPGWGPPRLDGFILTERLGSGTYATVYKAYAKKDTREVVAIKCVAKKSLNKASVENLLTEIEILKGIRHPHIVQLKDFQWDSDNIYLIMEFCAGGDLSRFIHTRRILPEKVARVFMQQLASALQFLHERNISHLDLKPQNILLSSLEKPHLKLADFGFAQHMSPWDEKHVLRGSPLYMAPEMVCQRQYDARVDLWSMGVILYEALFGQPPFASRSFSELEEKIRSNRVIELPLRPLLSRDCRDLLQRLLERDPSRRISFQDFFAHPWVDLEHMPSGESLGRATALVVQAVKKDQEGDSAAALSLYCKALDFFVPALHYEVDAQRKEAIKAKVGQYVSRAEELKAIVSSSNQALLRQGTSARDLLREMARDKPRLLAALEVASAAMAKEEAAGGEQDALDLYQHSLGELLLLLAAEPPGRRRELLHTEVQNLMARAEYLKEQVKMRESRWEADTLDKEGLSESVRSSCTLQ

[11] = biological target: 5-hydroxytryptamine receptor 1B (Homo sapiens) (UniProt P28222); details: Compound concentration 10.0 uM
Sequence of 5-hydroxytryptamine receptor 1B (Homo sapiens) (P28222 whole entry): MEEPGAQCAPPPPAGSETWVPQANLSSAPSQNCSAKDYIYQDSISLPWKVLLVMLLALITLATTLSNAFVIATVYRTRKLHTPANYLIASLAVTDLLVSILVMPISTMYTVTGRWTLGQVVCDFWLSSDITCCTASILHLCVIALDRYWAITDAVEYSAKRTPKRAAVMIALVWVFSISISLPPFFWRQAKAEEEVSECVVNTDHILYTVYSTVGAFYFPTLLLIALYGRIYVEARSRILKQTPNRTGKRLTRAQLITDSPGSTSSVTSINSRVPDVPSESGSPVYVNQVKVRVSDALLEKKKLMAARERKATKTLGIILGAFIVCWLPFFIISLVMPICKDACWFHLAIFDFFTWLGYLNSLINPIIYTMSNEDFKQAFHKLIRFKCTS

[12] = biological target: Mu-type opioid receptor (Homo sapiens, UniProt P35372); details: Compound concentration 10.0 uM
[13] = biological target: T1, Telomere zinc finger-associated protein (Homo sapiens) (UniProt P10074); details: SUD4, Compound concentration 1.0 uM
T1 sequence (whole entry): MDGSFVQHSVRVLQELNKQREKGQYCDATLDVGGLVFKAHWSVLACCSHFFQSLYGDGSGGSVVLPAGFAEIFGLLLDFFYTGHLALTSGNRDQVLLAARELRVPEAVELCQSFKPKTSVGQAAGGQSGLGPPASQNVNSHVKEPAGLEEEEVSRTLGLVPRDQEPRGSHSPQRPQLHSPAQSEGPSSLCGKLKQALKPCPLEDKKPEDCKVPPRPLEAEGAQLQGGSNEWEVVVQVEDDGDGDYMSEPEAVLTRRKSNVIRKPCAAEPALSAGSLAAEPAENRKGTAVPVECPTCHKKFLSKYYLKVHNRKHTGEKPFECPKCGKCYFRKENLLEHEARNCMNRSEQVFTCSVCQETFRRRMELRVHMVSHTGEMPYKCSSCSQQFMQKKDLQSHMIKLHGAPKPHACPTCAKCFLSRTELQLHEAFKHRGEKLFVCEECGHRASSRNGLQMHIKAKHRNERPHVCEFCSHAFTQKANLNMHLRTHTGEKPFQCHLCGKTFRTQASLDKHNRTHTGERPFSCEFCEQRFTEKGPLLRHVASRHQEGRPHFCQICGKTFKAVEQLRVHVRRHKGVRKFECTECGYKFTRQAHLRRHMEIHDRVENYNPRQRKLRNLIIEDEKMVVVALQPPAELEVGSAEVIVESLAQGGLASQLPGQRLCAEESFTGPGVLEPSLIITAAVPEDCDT

[14] = biological target: T2, Zinc finger and BTB domain-containing protein 2 (Homo sapiens) (UniProt Q8N680); details: SUD4, Compound concentration 1.0 uM
T2 sequence (whole entry): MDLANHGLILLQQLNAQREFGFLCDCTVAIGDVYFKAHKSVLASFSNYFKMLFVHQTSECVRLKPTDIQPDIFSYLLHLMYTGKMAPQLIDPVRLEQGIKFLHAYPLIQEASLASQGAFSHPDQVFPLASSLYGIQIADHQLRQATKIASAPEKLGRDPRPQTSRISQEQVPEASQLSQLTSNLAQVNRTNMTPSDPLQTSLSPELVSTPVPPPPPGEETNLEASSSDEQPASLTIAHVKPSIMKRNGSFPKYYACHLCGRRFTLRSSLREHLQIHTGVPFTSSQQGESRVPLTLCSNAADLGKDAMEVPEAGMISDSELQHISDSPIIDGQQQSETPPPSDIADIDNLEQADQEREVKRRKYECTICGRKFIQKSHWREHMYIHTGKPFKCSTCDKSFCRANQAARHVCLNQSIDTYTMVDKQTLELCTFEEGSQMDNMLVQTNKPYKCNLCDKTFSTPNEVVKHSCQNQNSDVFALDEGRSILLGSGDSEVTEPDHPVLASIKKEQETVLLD

[15] = biological target: Zinc finger and BTB domain-containing protein 7A (Homo sapiens) (UniProt O95365); details: SUD4, Compound concentration 1.0 uM
Sequence of Zinc finger and BTB domain-containing protein 7A (Homo sapiens) (O95365 whole entry, the tested form may be a part): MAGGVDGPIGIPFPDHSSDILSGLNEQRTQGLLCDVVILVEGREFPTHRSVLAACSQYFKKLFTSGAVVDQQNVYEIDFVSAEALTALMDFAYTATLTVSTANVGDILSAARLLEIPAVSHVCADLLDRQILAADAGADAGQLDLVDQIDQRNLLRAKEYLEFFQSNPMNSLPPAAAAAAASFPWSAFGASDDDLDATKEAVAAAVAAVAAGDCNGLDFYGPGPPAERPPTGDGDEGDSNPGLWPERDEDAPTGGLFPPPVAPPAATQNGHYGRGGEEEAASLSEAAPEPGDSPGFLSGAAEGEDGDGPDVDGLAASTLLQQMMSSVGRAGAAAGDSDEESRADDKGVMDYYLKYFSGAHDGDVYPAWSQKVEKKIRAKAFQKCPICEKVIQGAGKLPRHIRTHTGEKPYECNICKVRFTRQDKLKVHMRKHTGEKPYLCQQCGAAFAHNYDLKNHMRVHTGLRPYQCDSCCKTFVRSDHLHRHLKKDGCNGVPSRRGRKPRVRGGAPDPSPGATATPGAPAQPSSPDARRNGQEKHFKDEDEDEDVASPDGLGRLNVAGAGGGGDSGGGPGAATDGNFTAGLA

[16] = biological target: Zinc finger and BTB domain-containing protein 14 (Homo sapiens) (UniProt O43829); details: SUD4, Compound concentration 1.0 uM
Sequence of Zinc finger and BTB domain-containing protein 14 (Homo sapiens) (O43829 whole entry, the tested form may be a part): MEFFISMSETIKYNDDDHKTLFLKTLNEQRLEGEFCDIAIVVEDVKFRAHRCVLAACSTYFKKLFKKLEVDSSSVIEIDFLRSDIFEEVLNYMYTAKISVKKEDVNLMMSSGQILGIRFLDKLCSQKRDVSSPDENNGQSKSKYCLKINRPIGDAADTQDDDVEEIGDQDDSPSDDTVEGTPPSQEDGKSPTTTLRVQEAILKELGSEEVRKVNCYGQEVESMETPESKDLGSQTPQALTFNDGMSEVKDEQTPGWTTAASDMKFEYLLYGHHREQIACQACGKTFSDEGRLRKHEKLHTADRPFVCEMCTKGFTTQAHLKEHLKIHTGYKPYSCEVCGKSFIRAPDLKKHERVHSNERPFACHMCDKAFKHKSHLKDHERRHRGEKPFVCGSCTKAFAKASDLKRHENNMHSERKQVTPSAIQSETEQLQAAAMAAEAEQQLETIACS

[17] = biological target: T3, Zinc finger and BTB domain-containing protein 44 (Homo sapiens) (UniProt Q8NCP5); details: SUD4, Compound concentration 1.0 uM
T3 sequence (whole entry): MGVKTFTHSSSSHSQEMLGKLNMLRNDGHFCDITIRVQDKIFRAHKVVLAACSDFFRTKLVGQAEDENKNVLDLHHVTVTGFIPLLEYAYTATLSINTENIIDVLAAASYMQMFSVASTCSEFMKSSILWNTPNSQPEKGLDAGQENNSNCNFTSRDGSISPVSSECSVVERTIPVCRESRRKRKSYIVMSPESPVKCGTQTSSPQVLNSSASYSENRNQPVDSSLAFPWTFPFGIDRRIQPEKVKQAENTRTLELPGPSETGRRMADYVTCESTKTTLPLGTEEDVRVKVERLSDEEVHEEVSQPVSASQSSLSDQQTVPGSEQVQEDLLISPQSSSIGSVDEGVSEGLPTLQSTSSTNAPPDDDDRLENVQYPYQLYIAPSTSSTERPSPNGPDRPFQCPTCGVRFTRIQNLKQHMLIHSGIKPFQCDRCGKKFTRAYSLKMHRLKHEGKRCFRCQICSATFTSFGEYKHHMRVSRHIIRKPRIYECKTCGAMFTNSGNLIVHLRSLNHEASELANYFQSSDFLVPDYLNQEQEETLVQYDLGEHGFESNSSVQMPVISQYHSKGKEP

[18] = biological target: Protein archease (Homo sapiens) (UniProt Q8IWT0); details: SUD4, Compound concentration 1.0 uM
Sequence of Protein archease (Homo sapiens) (Q8IWT0 whole entry): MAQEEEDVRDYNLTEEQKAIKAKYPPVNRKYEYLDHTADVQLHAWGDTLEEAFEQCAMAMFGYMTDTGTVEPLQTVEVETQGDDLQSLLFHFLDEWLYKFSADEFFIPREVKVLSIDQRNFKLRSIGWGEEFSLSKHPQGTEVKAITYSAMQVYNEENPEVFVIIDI

Sequence of Casein kinase I isoform delta (Homo sapiens) (P48730 whole entry, looked up, canonical isoform): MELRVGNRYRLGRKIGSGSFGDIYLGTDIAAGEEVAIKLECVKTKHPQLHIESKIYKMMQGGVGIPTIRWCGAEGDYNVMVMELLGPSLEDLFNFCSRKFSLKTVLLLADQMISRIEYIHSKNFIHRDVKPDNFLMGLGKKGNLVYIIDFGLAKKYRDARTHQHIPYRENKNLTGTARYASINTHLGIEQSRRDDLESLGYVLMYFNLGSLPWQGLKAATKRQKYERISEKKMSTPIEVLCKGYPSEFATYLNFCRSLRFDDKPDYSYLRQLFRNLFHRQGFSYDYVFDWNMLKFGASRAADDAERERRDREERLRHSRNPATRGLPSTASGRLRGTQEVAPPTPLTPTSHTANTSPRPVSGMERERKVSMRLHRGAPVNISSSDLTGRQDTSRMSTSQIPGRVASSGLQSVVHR

Tm [1]: 44 °C
Tm [2]: 52 °C
Tm [3]: 42 °C
Tm [4]: 42 °C
Tm [5]: 45 °C
Tm [6]: 45 °C
Tm [7]: 40 °C
Tm [8]: 40 °C
Tm [9]: 37 °C
Tm [10]: 44 °C
inhibition [11]: 3.38%
inhibition [12]: 86.6%
LogFC [13]: -0.0152
LogFC [14]: 0.029
LogFC [15]: 0.0336
LogFC [16]: 0.0827
LogFC [17]: -0.235
LogFC [18]: 0.0264
Structure (SMILES): C[C@@H]1CN(c2ncc(Cl)c(Nc3ccc4c(c3)n(CCC(C)(C)O)c(=O)n4C)n2)C[C@H](C)C1(F)F
